Assay in all cases: NCI anticancer screen, dose series, 48 h
For test [1], the system named is DU-145 prostate.
Test [2] relates to T-47D breast.
The subject of test [3] is TK-10 renal.
In test [4] the test system is EKVX NSCLC.
Test [5] deals with SK-MEL-5 melanoma.
Test [6] deals with CAKI-1 renal.
The subject of test [7] is PC-3 prostate.
The test system of test [8] is HOP-92 NSCLC.
Test [9] relates to SK-MEL-2 melanoma.
Test [10] deals with SK-OV-3 ovarian.

Each structure is given as a SMILES string.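 Interpolation was linear, between the two tested concentrations surrounding the appropriate level; five concentrations were tested over 48 hours in 96-well plates. Definition used: TGI = concentration required for complete inhibition of growth.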

13 molecules from PubChem BioAssay (NCI) can be followed below.

In the case of `C=C(C)[C@@H]1CCC2=C[C@H](CC(C)=CC3=CC(C)=C(O3)[C@@H]1OC)OC2=O`, the TGI in test [1], in test [2], in test [3], in test [4], in test [5] and in [6] was greater than 100 µM throughout. Moreover, the TGI in test [7] is greater than 100 µM; in test [8], greater than 100 µM; in test [9] it was 52.7 µM.

With `CC(C)(C)[C@H]1CCC2(OCCO2)[C@](O)(CCCO)C1`, the TGI in [1], in test [2], in test [3], in test [4], in test [10] and in [5] was greater than 100 µM each time. In addition, the TGI in test [6], in test [7], in test [8] and in test [9] was greater than 100 µM each time.

With `COc1cc2c(cc1OC)-c1cc3cc(OC)c(OC)cc3c(=O)n1CC2`, the TGI in test [1] is greater than 51.5 µM; in test [2], 8.34 µM; in test [3], greater than 100 µM; in test [4] it was greater than 100 µM; in test [10], greater than 100 µM; in test [5], 25.9 µM. The TGI is greater than 30.3 µM in test [6], greater than 100 µM in test [7], 10.5 µM in test [8] and greater than 72.9 µM in test [9].

On to `Clc1nc(Cl)c(CBr)c(Cl)n1`, for which the TGI in [1] worked out at 30.6 µM; in test [2], 36.1 µM; in [3], 16.9 µM; in [4], 48.9 µM; in test [10], 29 µM; in [5] it was 8.46 µM. The TGI in [6] amounted to 23.3 µM; in test [7], 17.7 µM; in test [8], 5.07 µM; in test [9], 43.1 µM.

As to `CCOC(=O)C(C(=O)OCC)=C1NC2(c3ccccc3Nc3ccc(C)cc32)C(C(=O)OC)S1` (stereo unspecified), the TGI is greater than 100 µM in [1]; 67.2 µM in test [2]; greater than 100 µM in test [3]; 80.9 µM in [4]; greater than 100 µM in test [10]; 66.9 µM in [5]. In addition, the TGI in test [6] was greater than 100 µM; in test [7], greater than 100 µM; in test [8] it was 44.4 µM; in [9] it was 63.1 µM.

With `NC(=O)c1nnsc1NC=O`, the TGI in test [1], in test [2], in [4], in test [10], in test [5] and in test [6] was greater than 100 µM in each case. The TGI in test [7], in [8] and in test [9] was greater than 100 µM throughout.

In the case of `CC(NC(=O)C(N)CC(=O)O)NC(=O)N(C)C(C)(C)C` (stereo unspecified), the TGI in [1], in [2], in test [3], in [4], in test [10] and in test [5] was greater than 100 µM throughout. Also, the TGI in test [6], in test [7] and in test [9] was greater than 100 µM throughout.

For `O=C(OCc1ccccc1)N1CCN(C(=O)OCc2ccccc2)CCN(C(=O)OCc2ccccc2)CCN(C(=O)OCc2ccccc2)CCN(C(=O)OCc2ccccc2)CC1`, the TGI was greater than 100 µM in test [1]; greater than 100 µM in [2]; greater than 100 µM in test [3]; greater than 100 µM in [4]; greater than 100 µM in [10]; 33.3 µM in test [5]. For the same molecule, the TGI in test [6], in test [7], in test [8] and in [9] was greater than 100 µM each time.

For `CC1(CC2=C(C(=O)NCCO[Si](C)(C)C(C)(C)C)C3(OCCO3)C2=O)OCCO1`, the TGI in test [1], in test [2], in test [3], in [4], in [10] and in [5] was greater than 100 µM throughout. Also, the TGI in [6], in test [7], in test [8] and in [9] was greater than 100 µM each time.

As for `CC(=O)OCC1=C(C)C[C@H]([C@@H](COC(C)=O)C2CCC3C4C[C@H]5O[C@]56CC=CC(=O)[C@]6(C)C4CC[C@@]32C)OC1=O` (stereo partly specified), the TGI in [1] was determined as 1.41 µM; in [2], 1.41 µM; in test [3], 19.2 µM; in test [4] it was 1.36 µM; in test [10], 6.93 µM; in [5] it was 0.875 µM. Further, the TGI came out at 2.64 µM in test [6], 1.27 µM in test [7], 2.87 µM in test [8] and 1.64 µM in test [9].

For `C#CCn1c(=O)c(Cl)cn(/C(=C/C(=O)OCC)C(=O)OCC)c1=O`, the TGI in [1] is 33 µM; in test [2], 5.27 µM; in test [3] it was 8.09 µM; in [4] it was 34.3 µM; in test [10], greater than 61.6 µM; in [5] it was 30.6 µM. Besides, the TGI in test [6] turned out to be 7.37 µM; in [7] it was 31.5 µM; in test [8] it was 22 µM; in test [9] it was 35.6 µM.

With `O=[N+]([O-])c1c2nc3n(c2cc2c1nc1n2CCC1)CCC3`, the TGI in test [1], in test [2], in [3], in [4], in test [10] and in test [5] was greater than 100 µM each time. Moreover, the TGI in test [6], in [7] and in test [8] was greater than 100 µM throughout.

`CCOC(=O)Cn1c(=O)c2cc(-c3ccccc3)cc3c(Cl)nc4c(OC)c(OC)cc1c4c32`: the TGI in [1] was greater than 61 µM; in test [2] it was greater than 100 µM; in test [3] it was 99.4 µM; in test [4], greater than 59.2 µM; in test [10], greater than 100 µM; in [5] it was greater than 59.9 µM. Also, the TGI in test [6] is greater than 100 µM; in test [7], 55.4 µM; in [8], 54.6 µM; in test [9], 35.4 µM.
